Reference: US6905852B1, “Herbicide-resistant protoporphyrinogen oxidase isolated from Nicotiana tabacum” (Nihon Nohyaku Co., Ltd., priority 1997, dated 2005)

How the values were obtained:
Experiment in all cases: MIC on MS agar medium, cross-resistance to herbicides
Format in all cases: cell-based, Nicotiana tabacum
[1] = tested on: Sensitive strain; conditions: Sensitive strain
From the text: (§1) Further, cross-resistance of a resistant strain tolerant to herbicides with various modes of action was examined. Sensitivity to fomesafen (trade mark: FLEX) and oxadiazon (trade mark: RONSTAR), which are photobleaching herbicide and accumulate protoporphyrin IX; pyrazoxyfen (trademark: PAICER) which is a chlorophyll synthesis inhibitor and causes bleaching; DPX-84 and bialaphos (trademark: BASTA) and glyphosate (trademark: ROUNDUP) which are an inhibitor of the amino acid synthesis; butachlor (trademark: MACHETE) which is a protein synthesis inhibitor; propanil (trademark: STAM) which is an inhibitor of light synthesis photochemical system II and paraquat (trademark: PREEGLOX) which is an inhibitor of photosystem I and produces an active oxygen was compared. Into MS agar medium containing each herbicides, each resistant strain was transplanted and minimum inhibition concentration (MIC) was measured. […] From the above results, ETR-056 was thought to have resistance to an active oxygen caused by overproduction of superoxide dismutase, and ETR-253 was thought to have resistance to many herbicides caused by decreasing of a membrane permeability, and ETR-245 was thought to have resistance caused by mutation of a target enzyme or overproduction of a target enzyme.
(§2) MIC of compound A to the sensitive cell lines, ETR-056, ETR-245 and ETR-253 were measured.

[2] = tested on: ETR-056
From the text: as §1, §2

[3] = tested on: ETR-245
From the text: as §1, §2

[4] = tested on: ETR-253
From the text: as §1, §2

SMILES	MIC (ppm) [1]	MIC (ppm) [2]	MIC (ppm) [3]	MIC (ppm) [4]
COC(=O)c1ccccc1CS(=O)(=O)NC(=O)Nc1nc(OC)cc(OC)n1 [DPX-84]	0.01 ppm	0.01 ppm	0.01 ppm	0.1 ppm
C[C@H](NC(=O)[C@H](C)NC(=O)[C@@H](N)CCP(C)(=O)O)C(=O)O [bialaphos]	10 ppm	1 ppm	1 ppm	10 ppm
CCCCOCN(C(=O)CCl)c1c(CC)cccc1CC [butachlor]	100 ppm	100 ppm	100 ppm	100 ppm
CS(=O)(=O)NC(=O)c1cc(Oc2ccc(C(F)(F)F)cc2Cl)ccc1[N+](=O)[O-] [fomesafen]	0.4 ppm	4 ppm	4 ppm	4 ppm
O=C(O)CNCP(=O)(O)O [glyphosate]	230 ppm	230 ppm	230 ppm	1000 ppm
CC(C)Oc1cc(-n2nc(C(C)(C)C)oc2=O)c(Cl)cc1Cl [oxadiazon]	1 ppm	1000 ppm	1000 ppm	1000 ppm
C[n+]1ccc(-c2cc[n+](C)cc2)cc1 [paraquat]	10 ppm	100 ppm	10 ppm	10 ppm
CCC(=O)Nc1ccc(Cl)c(Cl)c1 [propanil]	100 ppm	100 ppm	100 ppm	100 ppm
Cc1nn(C)c(OCC(=O)c2ccccc2)c1C(=O)c1ccc(Cl)cc1Cl [pyrazoxyfen]	100 ppm	100 ppm	100 ppm	200 ppm
